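A five-concentration, 48-hour dose response in 96-well plates underlies each endpoint, interpolated linearly between surrounding concentrations. Definition used: TGI = concentration required for complete inhibition of growth.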
Columns and labels:
Experiment in all cases: NCI anticancer screen, dose series, 48 h
786-0 renal = tested on: 786-0 renal
A549 NSCLC = tested on: A549 NSCLC
ACHN renal = tested on: ACHN renal
BT-549 breast = tested on: BT-549 breast
CAKI-1 renal = tested on: CAKI-1 renal
CCRF-CEM leukemia = tested on: CCRF-CEM leukemia
COLO 205 colon = tested on: COLO 205 colon
EKVX NSCLC = tested on: EKVX NSCLC
HCC-2998 colon = tested on: HCC-2998 colon
HCT-116 colon = tested on: HCT-116 colon
HCT-15 colon = tested on: HCT-15 colon
HL-60(TB) leukemia = tested on: HL-60(TB) leukemia
HOP-62 NSCLC = tested on: HOP-62 NSCLC
HOP-92 NSCLC = tested on: HOP-92 NSCLC
HS 578T breast = tested on: HS 578T breast
HT29 colon = tested on: HT29 colon
IGROV1 ovarian = tested on: IGROV1 ovarian
K-562 leukemia = tested on: K-562 leukemia
KM12 colon = tested on: KM12 colon
M14 melanoma = tested on: M14 melanoma
MALME-3M melanoma = tested on: MALME-3M melanoma
MCF7 breast = tested on: MCF7 breast
MDA-MB-231 breast = tested on: MDA-MB-231 breast
MDA-MB-435 = tested on: MDA-MB-435
MOLT-4 leukemia = tested on: MOLT-4 leukemia
NCI-H226 lung = tested on: NCI-H226 lung
NCI-H23 lung = tested on: NCI-H23 lung
NCI-H460 lung = tested on: NCI-H460 lung
NCI-H522 lung = tested on: NCI-H522 lung
NCI/ADR-RES ovarian = tested on: NCI/ADR-RES ovarian
OVCAR-3 ovarian = tested on: OVCAR-3 ovarian
OVCAR-4 ovarian = tested on: OVCAR-4 ovarian
OVCAR-5 ovarian = tested on: OVCAR-5 ovarian
OVCAR-8 ovarian = tested on: OVCAR-8 ovarian
PC-3 prostate = tested on: PC-3 prostate
RPMI-8226 leukemia = tested on: RPMI-8226 leukemia
RXF 393 renal = tested on: RXF 393 renal
SF-268 CNS = tested on: SF-268 CNS
SF-295 CNS = tested on: SF-295 CNS
SF-539 CNS = tested on: SF-539 CNS
SK-MEL-2 melanoma = tested on: SK-MEL-2 melanoma
SK-MEL-28 melanoma = tested on: SK-MEL-28 melanoma
SK-MEL-5 melanoma = tested on: SK-MEL-5 melanoma
SK-OV-3 ovarian = tested on: SK-OV-3 ovarian
SNB-19 CNS = tested on: SNB-19 CNS
SNB-75 CNS = tested on: SNB-75 CNS
SR leukemia = tested on: SR leukemia
SW-620 colon = tested on: SW-620 colon
TK-10 renal = tested on: TK-10 renal
U251 CNS = tested on: U251 CNS
UACC-257 melanoma = tested on: UACC-257 melanoma
UACC-62 melanoma = tested on: UACC-62 melanoma
UO-31 renal = tested on: UO-31 renal

Cc1cccc(N=Nc2ccc(N=Nc3c(O)ccc4ccccc34)cc2C)c1
TGI (786-0 renal): > 100 µM | TGI (A549 NSCLC): > 100 µM | TGI (ACHN renal): > 100 µM | TGI (BT-549 breast): > 100 µM | TGI (CAKI-1 renal): > 100 µM | TGI (CCRF-CEM leukemia): > 100 µM | TGI (COLO 205 colon): > 100 µM | TGI (EKVX NSCLC): > 100 µM | TGI (HCC-2998 colon): > 100 µM | TGI (HCT-116 colon): > 100 µM | TGI (HCT-15 colon): > 100 µM | TGI (HL-60(TB) leukemia): > 100 µM | TGI (HOP-62 NSCLC): 89.6 µM | TGI (HOP-92 NSCLC): > 100 µM | TGI (HS 578T breast): > 100 µM | TGI (HT29 colon): > 100 µM | TGI (IGROV1 ovarian): > 100 µM | TGI (K-562 leukemia): > 100 µM | TGI (KM12 colon): > 100 µM | TGI (M14 melanoma): > 100 µM | TGI (MALME-3M melanoma): 5.34 µM | TGI (MCF7 breast): > 100 µM | TGI (MDA-MB-231 breast): > 100 µM | TGI (MDA-MB-435): > 100 µM | TGI (MOLT-4 leukemia): > 100 µM | TGI (NCI-H226 lung): > 100 µM | TGI (NCI-H23 lung): > 100 µM | TGI (NCI-H460 lung): > 100 µM | TGI (NCI-H522 lung): 37.6 µM | TGI (NCI/ADR-RES ovarian): 50.7 µM | TGI (OVCAR-3 ovarian): > 100 µM | TGI (OVCAR-4 ovarian): > 100 µM | TGI (OVCAR-5 ovarian): > 100 µM | TGI (OVCAR-8 ovarian): 60.3 µM | TGI (PC-3 prostate): > 100 µM | TGI (RPMI-8226 leukemia): > 100 µM | TGI (RXF 393 renal): > 100 µM | TGI (SF-268 CNS): > 100 µM | TGI (SF-295 CNS): > 100 µM | TGI (SF-539 CNS): > 100 µM | TGI (SK-MEL-2 melanoma): > 100 µM | TGI (SK-MEL-28 melanoma): > 100 µM | TGI (SK-MEL-5 melanoma): > 100 µM | TGI (SK-OV-3 ovarian): 92.4 µM | TGI (SNB-19 CNS): > 100 µM | TGI (SNB-75 CNS): 37.8 µM | TGI (SR leukemia): 49.5 µM | TGI (SW-620 colon): > 100 µM | TGI (TK-10 renal): > 100 µM | TGI (U251 CNS): > 100 µM | TGI (UACC-257 melanoma): > 100 µM | TGI (UACC-62 melanoma): > 100 µM | TGI (UO-31 renal): > 100 µM
